Test results published in ChEMBL document CHEMBL1201862, “PubChem BioAssay data set” (2004).
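Results reflect a 48-hour exposure of cells in 96-well plates to compound at five concentrations. GI50 = concentration required for 50% inhibition of growth.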 Active and inactive are the calls of the source. Cut-off read from the data, not from the text of the source: active = GI50 up to about 1.1 µM and inactive = higher.

Legend:
Assay in all cases: NCI-60 cell line screen, 48 h
[1] = test system: HL-60
[2] = test system: A498
[3] = test system: CCRF-CEM
[4] = test system: NCI-H522
[5] = test system: MDA-MB-435
[6] = test system: SF-268
[7] = test system: SK-MEL-28
[8] = test system: IGROV-1
[9] = test system: 786-0
[10] = test system: BT-549
[11] = test system: MCF7
[12] = test system: OVCAR-3
[13] = test system: SR
[14] = test system: SF-539
[15] = test system: T47D
[16] = test system: HOP-62
[17] = test system: TK-10
[18] = test system: UACC-62
[19] = test system: NCI-H23
[20] = test system: OVCAR-5
[21] = test system: CAKI-1
[22] = test system: K562
[23] = test system: SW-620
[24] = test system: UO-31
[25] = test system: Hs-578T
[26] = test system: HOP-92
[27] = test system: SK-OV-3
[28] = test system: ACHN
[29] = test system: HT-29
[30] = test system: SNB-19
[31] = test system: NCI/ADR-RES
[32] = test system: M14
[33] = test system: HCC 2998
[34] = test system: HCT-15
[35] = test system: RPMI-8226
[36] = test system: OVCAR-8
[37] = test system: SF-295
[38] = test system: EKVX
[39] = test system: UACC-257
[40] = test system: MDA-MB-231
[41] = test system: OVCAR-4
[42] = test system: PC-3
[43] = test system: SK-MEL-2
[44] = test system: A549
[45] = test system: MOLT-4
[46] = test system: SK-MEL-5
[47] = test system: COLO 205
[48] = test system: SNB-75
[49] = test system: DU-145
[50] = test system: U-251
[51] = test system: NCI-H460
[52] = test system: HCT-116
[53] = test system: KM12
[54] = test system: NCI-H226
[55] = test system: LOX IMVI
[56] = test system: SN12C
[57] = test system: Malme-3M
[58] = test system: MDA-N
[59] = test system: RXF 393

Measured: GI50

COc1cc([C@@H]2OC[C@@H]3C(c4cc(OC)c5c(c4)OCO5)OC[C@@H]32)cc(OC)c1OC (stereo partly drawn)
43.3 µM: [34]
inactive: [1] > 10 µM | [2] > 100 µM | [3] 52.4 µM | [4] 96.8 µM | [5] > 100 µM | [6] > 100 µM | [7] > 100 µM | [8] > 100 µM | [9] > 100 µM | [10] 57.9 µM | [11] > 100 µM | [12] > 100 µM | [13] 89.1 µM | [14] > 100 µM | [15] 46.1 µM | [16] > 100 µM | [17] > 100 µM | [18] 49.1 µM | [19] > 100 µM | [20] > 100 µM | [21] > 100 µM | [22] > 100 µM | [23] > 100 µM | [24] > 100 µM | [25] > 100 µM | [26] > 100 µM | [27] > 100 µM | [28] > 100 µM | [29] 42.2 µM | [30] > 100 µM | [31] 31.6 µM | [32] > 100 µM | [33] > 100 µM | [35] 49.5 µM | [36] 69.8 µM | [37] > 100 µM | [38] > 100 µM | [39] > 100 µM | [40] > 100 µM | [41] 92.5 µM | [42] 50.1 µM | [43] > 100 µM | [44] > 100 µM | [45] 51.3 µM | [46] 26.9 µM | [47] > 100 µM | [48] > 100 µM | [49] > 100 µM | [50] > 100 µM | [51] > 100 µM | [52] > 100 µM | [53] > 100 µM | [54] > 100 µM | [55] > 100 µM

C=CC[C@H]1O[Si](C(C)(C)C)(C(C)(C)C)[C@H](C)[C@H]1C
inactive: [56] > 100 µM | [1] > 100 µM | [2] > 100 µM | [3] > 100 µM | [4] > 100 µM | [5] > 100 µM | [57] 20.3 µM | [7] > 100 µM | [8] > 100 µM | [9] > 100 µM | [10] > 100 µM | [11] > 100 µM | [12] > 100 µM | [13] 59.6 µM | [14] > 100 µM | [15] > 100 µM | [16] > 100 µM | [17] > 100 µM | [18] > 100 µM | [19] > 100 µM | [20] > 100 µM | [21] > 100 µM | [22] > 100 µM | [23] > 100 µM | [24] > 100 µM | [26] 24.3 µM | [27] > 100 µM | [28] 39.4 µM | [29] > 100 µM | [30] 13.6 µM | [31] > 100 µM | [32] > 100 µM | [33] > 100 µM | [35] > 10 µM | [36] > 100 µM | [37] > 100 µM | [38] > 100 µM | [39] > 100 µM | [40] > 100 µM | [41] > 100 µM | [42] > 100 µM | [43] > 100 µM | [44] > 100 µM | [45] > 100 µM | [58] > 100 µM | [46] > 100 µM | [47] > 100 µM | [48] > 100 µM | [50] > 100 µM | [52] > 100 µM | [53] > 100 µM | [54] > 100 µM | [55] > 100 µM
> 100 µM: [34]

COc1ccc(-c2oc3cc(OC)ccc3c(=O)c2O)cc1
inactive: [2] > 100 µM | [4] 3.18 µM | [5] > 27.7 µM | [6] 5.13 µM | [57] > 31.6 µM | [7] > 25.4 µM | [8] 4.25 µM | [9] 9.02 µM | [11] 3.43 µM | [13] 3.57 µM | [15] 9.42 µM | [16] 3.7 µM | [17] > 100 µM | [18] 5.19 µM | [21] 2.53 µM | [25] 1.54 µM | [26] 3.42 µM | [29] > 100 µM | [30] > 100 µM | [32] > 25.5 µM | [33] > 10 µM | [35] > 23.1 µM | [37] 4.79 µM | [38] > 100 µM | [39] > 100 µM | [40] 43.4 µM | [41] 3.88 µM | [42] > 100 µM | [59] 3.15 µM | [45] 2.66 µM | [58] > 100 µM | [46] > 100 µM | [47] > 100 µM | [50] 3.31 µM | [51] 3.37 µM | [52] 4.15 µM | [55] 4.12 µM
active: [10] 0.668 µM
3.63 µM: [34]
